How the values were obtained:
[1] = system: velvetleaf; assay: Test A postemergence; type: in vivo, Abutilon theophrasti; settings: Postemergence
Summary of the method: (§1)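 Injury readout: eye-scored versus untreated controls, 0 to 100. Exposure period: ~10 days, greenhouse. Application: soil-directed spray over sown seed (pre) or spray on seedlings 2–10 cm tall with one or two leaves (post), compound carried in non-phytotoxic solvent including surfactant.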

[2] = system: corn; assay: Test C preemergence; type: in vivo, Zea mays; settings: preemergence; for Plant response rating, Corn: 125 g ai/ha, scale 0 to 100, 0 = no effect, 100 = complete control
Summary of the method: (§2)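 Pre- and postemergence greenhouse screen; vehicle was a non-phytotoxic solvent mix with surfactant. Preemergence: treatment applied right after sowing into loam and sand. Postemergence: treated at 1–4 leaves. Visual rating at 13–15 days, 100 = complete control.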

[3] = system: oilseed rape; assay: Test C preemergence; type: in vivo, Brassica napus; settings: preemergence; for Plant response rating, Oilseed Rape: 125 g ai/ha, scale 0 to 100, 0 = no effect, 100 = complete control
Summary of the method: as §2

[4] = system: foxtail, giant; assay: Test A preemergence; type: in vivo, Setaria faberii; settings: preemergence; for Foxtail, Giant plant response rating (0 to 100 scale): 125 g ai/ha, visual injury approx. 10 days after treatment; for Foxtail, Giant plant response rating: 500 g ai/ha, visual injury after approx. 10 days, 0 to 100 scale (0 no effect, 100 complete control)
Summary of the method: as §1

[5] = system: ragweed; assay: Test C preemergence; type: in vivo, Ambrosia elation; settings: preemergence; for Plant response rating, Ragweed: 125 g ai/ha, scale 0 to 100, 0 = no effect, 100 = complete control
Summary of the method: as §2

[6] = system: barnyardgrass; assay: Test B flood; type: in vivo, Echinochloa crus-galli; settings: 250 g ai/ha, visual rating on 0 to 100 scale (0 no effect, 100 complete control), 13 to 15 days
Summary of the method: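 Each compound is applied to the floodwater of pots holding 2-leaf seedlings, water standing 3 cm over the soil throughout. Plants stay in a greenhouse 13 to 15 days before visual scoring against controls from 0 (no effect) to 100 (complete control).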

[7] = system: barnyardgrass; assay: Test C preemergence; type: in vivo, Echinochloa crus-galli; settings: preemergence; for Plant response rating, Barnyardgrass: 125 g ai/ha, scale 0 to 100, 0 = no effect, 100 = complete control
Summary of the method: as §2

[8] = system: johnsongrass; assay: Test C preemergence; type: in vivo, Sorghum halepense; settings: preemergence; for Plant response rating, Johnsongrass: 125 g ai/ha, scale 0 to 100, 0 = no effect, 100 = complete control
Summary of the method: as §2

[9] = system: barnyardgrass; assay: Test A preemergence; type: in vivo, Echinochloa crus-galli; settings: preemergence; for Barnyardgrass plant response rating (0 to 100 scale, 0 is no effect, 100 is complete control): 125 g ai/ha, visual injury approx. 10 days after treatment; for Barnyardgrass plant response rating: 500 g ai/ha, visual injury after approx. 10 days, 0 to 100 scale (0 no effect, 100 complete control)
Summary of the method: as §1

[10] = system: velvetleaf; assay: Test A preemergence; type: in vivo, Abutilon theophrasti; settings: preemergence; for Velvetleaf plant response rating (0 to 100 scale): 125 g ai/ha, visual injury approx. 10 days after treatment; for Velvetleaf plant response rating: 500 g ai/ha, visual injury after approx. 10 days, 0 to 100 scale (0 no effect, 100 complete control)
Summary of the method: as §1

[11] = system: ryegrass, Italian; assay: Test C preemergence; type: in vivo, Lolium multiflorum; settings: preemergence; for Plant response rating, Ryegrass, Italian: 125 g ai/ha, scale 0 to 100, 0 = no effect, 100 = complete control
Summary of the method: as §2

[12] = system: crabgrass, large; assay: Test C preemergence; type: in vivo, Digitaria sanguinalis; settings: preemergence; for Plant response rating, Crabgrass, Large: 125 g ai/ha, scale 0 to 100, 0 = no effect, 100 = complete control
Summary of the method: as §2

[13] = system: foxtail, giant; assay: Test C preemergence; type: in vivo, Setaria faberii; settings: preemergence; for Plant response rating, Foxtail, Giant: 125 g ai/ha, scale 0 to 100, 0 = no effect, 100 = complete control
Summary of the method: as §2

[14] = system: morningglory; assay: Test A preemergence; type: in vivo, Ipomoea spp.; settings: preemergence; for Morningglory plant response rating (0 to 100 scale): 125 g ai/ha, visual injury approx. 10 days after treatment; for Morningglory plant response rating: 500 g ai/ha, visual injury after approx. 10 days, 0 to 100 scale (0 no effect, 100 complete control)
Summary of the method: as §1

[15] = 125 g ai/ha, 0 to 100 scale, 0 no effect, 100 complete control
[16] = 500 g ai/ha, 0 to 100 scale (0 no effect, 100 complete control)
[17] = 31 g ai/ha, visual rating, scale 0 to 100 (0 no effect, 100 complete control), 13 to 15 days
[18] = 62 g ai/ha, scale 0 to 100 (0 no effect, 100 complete control), 13 to 15 days
[19] = 250 g ai/ha, scale 0 to 100, 0 is no effect, 100 is complete control

CCOc1cc(C(=O)NC2CC2)nn1Cc1ccnc(C(F)(F)F)c1 [Compound 189]
Velvetleaf plant response rating [1, 15]: 100 | Velvetleaf plant response rating [1, 16]: 100 | Corn plant response rating [2, 17]: 5 | Corn plant response rating [2, 18]: 40 | Plant response rating, Corn ([2]; 13 to 15 days): 85 | Corn plant response rating [2, 19]: 98 | Oilseed Rape plant response rating [3, 17]: 98 | Oilseed Rape plant response rating [3, 18]: 95 | Plant response rating, Oilseed Rape ([3]; 13 to 15 days): 95 | Oilseed Rape plant response rating [3, 19]: 95 | Foxtail, Giant plant response rating (0 to 100 scale) [4]: 100 | Foxtail, Giant plant response rating [4]: 100 | Ragweed plant response rating [5, 17]: 85 | Ragweed plant response rating [5, 18]: 98 | Plant response rating, Ragweed ([5]; 13 to 15 days): 100 | Ragweed plant response rating [5, 19]: 98 | Plant response rating, Barnyardgrass [6]: 60 | Barnyardgrass plant response rating [7, 17]: 95 | Barnyardgrass plant response rating [7, 18]: 100 | Plant response rating, Barnyardgrass ([7]; 13 to 15 days): 100 | Barnyardgrass plant response rating [7, 19]: 100 | Johnsongrass plant response rating [8, 17]: 65 | Johnsongrass plant response rating [8, 18]: 98 | Plant response rating, Johnsongrass ([8]; 13 to 15 days): 100 | Johnsongrass plant response rating [8, 19]: 100 | Barnyardgrass plant response rating (0 to 100 scale, 0 is no effect, 100 is complete control) [9]: 90 | Barnyardgrass plant response rating [9]: 100 | Velvetleaf plant response rating (0 to 100 scale) [10]: 100 | Velvetleaf plant response rating [10]: 100 | Ryegrass, Italian plant response rating [11, 17]: 40 | Ryegrass, Italian plant response rating [11, 18]: 90 | Plant response rating, Ryegrass, Italian ([11]; 13 to 15 days): 90 | Ryegrass, Italian plant response rating [11, 19]: 90 | Crabgrass, Large plant response rating [12, 17]: 100 | Crabgrass, Large plant response rating [12, 18]: 100 | Plant response rating, Crabgrass, Large ([12]; 13 to 15 days): 100 | Crabgrass, Large plant response rating [12, 19]: 100 | Foxtail, Giant plant response rating [13, 17]: 100 | Foxtail, Giant plant response rating [13, 18]: 100 | Plant response rating, Foxtail, Giant ([13]; 13 to 15 days): 100 | Foxtail, Giant plant response rating [13, 19]: 100 | Morningglory plant response rating (0 to 100 scale) [14]: 100 | Morningglory plant response rating [14]: 100

CCONC(=O)c1cc(OCC)n(Cc2ccnc(C(F)(F)F)c2)n1 [Compound 195]
Velvetleaf plant response rating [1, 15]: 70 | Velvetleaf plant response rating [1, 16]: 100 | Corn plant response rating [2, 17]: 25 | Corn plant response rating [2, 18]: 45 | Plant response rating, Corn ([2]; 13 to 15 days): 70 | Corn plant response rating [2, 19]: 95 | Oilseed Rape plant response rating [3, 17]: 30 | Oilseed Rape plant response rating [3, 18]: 85 | Plant response rating, Oilseed Rape ([3]; 13 to 15 days): 95 | Oilseed Rape plant response rating [3, 19]: 98 | Foxtail, Giant plant response rating (0 to 100 scale) [4]: 90 | Foxtail, Giant plant response rating [4]: 90 | Ragweed plant response rating [5, 18]: 85 | Plant response rating, Ragweed ([5]; 13 to 15 days): 90 | Ragweed plant response rating [5, 19]: 98 | Plant response rating, Barnyardgrass [6]: 10 | Barnyardgrass plant response rating [7, 17]: 60 | Barnyardgrass plant response rating [7, 18]: 85 | Plant response rating, Barnyardgrass ([7]; 13 to 15 days): 100 | Barnyardgrass plant response rating [7, 19]: 100 | Johnsongrass plant response rating [8, 17]: 5 | Johnsongrass plant response rating [8, 18]: 30 | Plant response rating, Johnsongrass ([8]; 13 to 15 days): 75 | Johnsongrass plant response rating [8, 19]: 85 | Barnyardgrass plant response rating (0 to 100 scale, 0 is no effect, 100 is complete control) [9]: 90 | Barnyardgrass plant response rating [9]: 100 | Velvetleaf plant response rating (0 to 100 scale) [10]: 80 | Velvetleaf plant response rating [10]: 100 | Ryegrass, Italian plant response rating [11, 17]: 10 | Ryegrass, Italian plant response rating [11, 18]: 60 | Plant response rating, Ryegrass, Italian ([11]; 13 to 15 days): 90 | Ryegrass, Italian plant response rating [11, 19]: 90 | Crabgrass, Large plant response rating [12, 17]: 100 | Crabgrass, Large plant response rating [12, 18]: 95 | Plant response rating, Crabgrass, Large ([12]; 13 to 15 days): 100 | Crabgrass, Large plant response rating [12, 19]: 100 | Foxtail, Giant plant response rating [13, 17]: 65 | Foxtail, Giant plant response rating [13, 18]: 85 | Plant response rating, Foxtail, Giant ([13]; 13 to 15 days): 100 | Foxtail, Giant plant response rating [13, 19]: 100 | Morningglory plant response rating (0 to 100 scale) [14]: 90 | Morningglory plant response rating [14]: 100

From patent publication US20150105252A1, “SUBSTITUTED PYRAZOLES AS HERBICIDES” (E I DU PONT DE NEMOURS AND COMPANY, priority 2013, published 2015)
